SMILES strings stand for the structures.

This note sets out measurements from patent US20250215029A1 (Recludix Pharma, Inc., priority 2022, published 2025).

This test deals with T1, pY705-STAT3 in PBMC (Homo sapiens, UniProt P40763).
T1 construct: Cryopreserved Peripheral Blood Mononuclear Cells (PBMC) are from AllCells; host or cells: cryopreserved PBMC
T1 sequence (P40763 whole entry): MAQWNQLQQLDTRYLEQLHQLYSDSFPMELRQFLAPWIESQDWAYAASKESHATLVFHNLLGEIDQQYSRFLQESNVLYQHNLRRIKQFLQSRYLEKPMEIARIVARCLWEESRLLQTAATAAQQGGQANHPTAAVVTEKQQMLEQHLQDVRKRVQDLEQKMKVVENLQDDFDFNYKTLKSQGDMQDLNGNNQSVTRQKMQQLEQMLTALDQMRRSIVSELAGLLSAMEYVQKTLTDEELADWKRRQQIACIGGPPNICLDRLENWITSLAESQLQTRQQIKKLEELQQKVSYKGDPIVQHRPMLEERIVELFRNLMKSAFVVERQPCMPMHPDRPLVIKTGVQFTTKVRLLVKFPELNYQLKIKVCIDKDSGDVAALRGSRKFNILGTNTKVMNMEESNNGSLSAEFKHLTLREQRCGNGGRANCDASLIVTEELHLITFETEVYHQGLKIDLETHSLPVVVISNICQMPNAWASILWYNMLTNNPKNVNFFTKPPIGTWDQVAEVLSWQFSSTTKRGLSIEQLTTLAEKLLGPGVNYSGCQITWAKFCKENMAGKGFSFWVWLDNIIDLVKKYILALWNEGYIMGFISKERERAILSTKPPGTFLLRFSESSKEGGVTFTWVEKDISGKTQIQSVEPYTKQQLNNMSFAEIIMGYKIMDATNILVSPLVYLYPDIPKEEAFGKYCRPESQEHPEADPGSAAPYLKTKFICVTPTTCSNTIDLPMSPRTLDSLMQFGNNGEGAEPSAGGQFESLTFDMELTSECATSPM
As to the kind of experiment: MSD-pSTAT-PBMC Assay (pSTAT3, IL-6 stimulated). Type of test: cell-based. The settings on record: PBMC, compound 3 hrs, then 10 ng/mL IL-6 for 10 min; Table 115; read-out: STAT3. An outline of the steps:
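pY705-STAT3 was detected electrochemiluminescently on total-STAT3 capture plates, using lysates of human PBMCs given compound for 3 h and then IL-6 (10 ng/mL, 10 min). Values were background-subtracted against unstimulated wells and set relative to DMSO. IC50 was fitted with variable slope.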
In the case of `CCCOC(=O)[C@H](C)NP(=O)(Oc1ccccc1)C(F)c1ccc2sc(C(=O)N[C@H]3CCC[C@H]4CC[C@@H](C(=O)N5CC(c6cc(F)ccc6F)C5)N4C3=O)cc2c1` (stereo partly drawn) [Compound 986, propyl (((2-(((3S,6S,9aS)-3-(3-(2,5-difluorophenyl)azetidine-1-carbonyl)-5-oxooctahydro-1H-pyrrolo[1,2-a]azepin-6-yl)carbamoyl)benzo [b]thiophen-5-yl)fluoromethyl) (phenoxy)phosphoryl)-L-alaninate], the IC50 was 1000 to 3000 nM.

For the compound `CCCOC(=O)[C@H](C)NP(=O)(Cc1ccc2sc(C(=O)N[C@H]3CCC[C@H]4CC[C@@H](C(=O)N[C@H]5CN(C(C)=O)C[C@H]5F)N4C3=O)cc2c1)Oc1ccccc1` (stereo partly drawn) [Compound 309, propyl (((2-(((3S,6S,9aS)-3-(((3S,4R)-1-acetyl-4-fluoropyrrolidin-3-yl)carbamoyl)-5-oxooctahydro-1H-pyrrolo[1,2-a]azepin-6-yl)carbamoyl)benzo [b]thiophen-5-yl)methyl)(phenoxy)phosphoryl)-L-alaninate], the IC50 was more than 3000 nM.

As to `CCCOC(=O)[C@H](C)NP(=O)(Oc1ccccc1)C(F)c1ccc2sc(C(=O)N[C@H]3CCC[C@H]4CC[C@@H](C(=O)N5CC(c6cncnc6N(C)C)C5)N4C3=O)cc2c1` (some centres unmarked) [Compound 1043], the IC50 was less than 100 nM.

For the compound `CCCOC(=O)[C@H](C)NP(=O)(Cc1ccc2sc(C(=O)N[C@H]3CCC[C@H]4CC[C@@H](C(=O)N5CC(c6cccnc6)C5)N4C3=O)cc2c1)OCC(F)(F)F` (stereo partly drawn) [Compound 428, propyl (((2-(((3S,6S,9aS)-5-oxo-3-(3-(pyridin-3-yl)azetidine-1-carbonyl)octahydro-1H-pyrrolo[1,2-a]azepin-6-yl)carbamoyl)benzo [b]thiophen-5-yl)methyl)(2,2,2-trifluoroethoxy)phosphoryl)-L-alaninate], the IC50 is less than 100 nM.

Consider `CCCOC(=O)[C@H](C)NP(=O)(Oc1ccccc1)[C@@H](F)c1ccc2sc(C(=O)N[C@H]3C[C@@H](C)C[C@H]4CC[C@@H](C(=O)N5CC(c6cnccc6N(C)C)C5)N4C3=O)cc2c1` (stereo partly drawn) [Compound 1029, propyl (((R)-(2-(((3S,6S,8R,9aR)-3-(3-(4-(dimethylamino)pyridin-3-yl)azetidine-1-carbonyl)-8-methyl-5-oxooctahydro-1H-pyrrolo[1,2-a]azepin-6-yl)carbamoyl)benzo [b]thiophen-5-yl)fluoromethyl) (phenoxy)phosphoryl)-L-alaninate], for which the IC50 was less than 100 nM.

Take `CCCOC(=O)C(C)CNP(=O)(Cc1ccc2sc(C(=O)N[C@H]3CCC[C@H]4CC[C@@H](C(=O)N5CC(c6cccnc6)C5)N4C3=O)cc2c1)Oc1ccccc1` (stereo partly drawn) [Compound 294, propyl 2-methyl-3-((((2-(((3S,6S,9aS)-5-oxo-3-(3-(pyridin-3-yl)azetidine-1-carbonyl)octahydro-1H-pyrrolo[1,2-a]azepin-6-yl)carbamoyl)benzo [b]thiophen-5-yl)methyl)(phenoxy)phosphoryl)amino) propanoate]: the IC50 was 1000 to 3000 nM.

Take `CC[C@@H](C)OC(=O)[C@H](C)NP(=O)(Cc1ccc2sc(C(=O)N[C@H]3CCC[C@H]4CC[C@@H](C(=O)N5CC(c6cccnc6)C5)N4C3=O)cc2c1)Oc1ccccc1` (stereo partly drawn) [Compound 1016, (R)-sec-butyl (((2-(((3S,6S,9aS)-5-oxo-3-(3-(pyridin-3-yl)azetidine-1-carbonyl)octahydro-1H-pyrrolo[1,2-a]azepin-6-yl)carbamoyl)benzo [b]thiophen-5-yl)methyl)(phenoxy)phosphoryl)-L-alaninate]: the IC50 lay in the range of 100 to 1000 nM.

Turning to `CC(C)CC(=O)SCCOP(=O)(OCOC(=O)O[C@@H]1CCOC1)C(F)(F)c1ccc2sc(C(=O)N[C@H]3CCC[C@H]4CC[C@@H](C(=O)N5CC(c6ncccn6)C5)N4C3=O)cc2c1` (stereo partly drawn) [Compound 1098, S-(2-(((difluoro(2-(((3S,6S,9aS)-5-oxo-3-(3-(pyrimidin-2-yl)azetidine-1-carbonyl)octahydro-1H-pyrrolo[1,2-a]azepin-6-yl)carbamoyl)benzo [b]thiophen-5-yl)methyl)((((((R)-tetrahydrofuran-3-yl)oxy)carbonyl)oxy)methoxy)phosphoryl)oxy)ethyl) 3-methylbutanethioate], the IC50 is less than 100 nM.

For `COCCOCC(=O)SCCOP(=O)(OCCSC(=O)COCCOC)C(F)(F)c1ccc2sc(C(=O)N[C@H]3CCC[C@H]4CC[C@@H](C(=O)N5CC(c6cccnc6)C5)N4C3=O)cc2c1` [Compound 1102, S,S′-((((difluoro(2-(((3S,6S,9aS)-5-oxo-3-(3-(pyridin-3-yl)azetidine-1-carbonyl)octahydro-1H-pyrrolo[1,2-a]azepin-6-yl)carbamoyl)benzo [b]thiophen-5-yl)methyl)phosphoryl)bis(oxy))bis(ethane-2,1-diyl)) bis(2-(2-methoxyethoxy) ethanethioate)], the IC50 was less than 100 nM.

Regarding `CC(C)CC(=O)SCCOP(=O)(Cc1ccc2sc(C(=O)N[C@H]3CCC[C@H]4CC[C@@H](C(=O)N5CC(c6cccnc6)C5)N4C3=O)cc2c1)OCCSC(=O)CC(C)C` [Compound 1084, S,S′-(((((2-(((3S,6S,9aS)-5-oxo-3-(3-(pyridin-3-yl)azetidine-1-carbonyl)octahydro-1H-pyrrolo[1,2-a]azepin-6-yl)carbamoyl)benzo [b]thiophen-5-yl)methyl)phosphoryl)bis(oxy))bis(ethane-2,1-diyl)) bis(3-methylbutanethioate)], the IC50 lay in the range of 100 to 1000 nM.

For `Cc1ccncc1C1CN(C(=O)[C@@H]2CC[C@@H]3CCC[C@H](NC(=O)c4cc5cc(C(F)(F)P(=O)(N[C@@H](C)C(=O)OCc6ccccc6)Oc6ccccc6)ccc5s4)C(=O)N32)C1` (stereo partly drawn) [Compound 297, benzyl ((difluoro(2-(((3S,6S,9aS)-3-(3-(4-methylpyridin-3-yl)azetidine-1-carbonyl)-5-oxooctahydro-1H-pyrrolo[1,2-a]azepin-6-yl)carbamoyl)benzo [b]thiophen-5-yl)methyl)(phenoxy)phosphoryl)-L-alaninate], the IC50 lay in the range of 100 to 1000 nM.

In the case of `CCOC(=O)[C@@H](NP(=O)(Cc1ccc2sc(C(=O)N[C@H]3CCC[C@H]4CC[C@@H](C(=O)N5CC(c6cccnc6)C5)N4C3=O)cc2c1)Oc1ccccc1)C(C)C` (stereo partly drawn) [Compound 949, ethyl (((2-(((3S,6S,9aS)-5-oxo-3-(3-(pyridin-3-yl)azetidine-1-carbonyl)octahydro-1H-pyrrolo[1,2-a]azepin-6-yl)carbamoyl)benzo [b]thiophen-5-yl)methyl) (phenoxy)phosphoryl)-L-valinate], the IC50 is 1000 to 3000 nM.

Consider `CCCOC(=O)[C@H](C)NP(=O)(Oc1ccccc1)[C@H](F)c1ccc2sc(C(=O)N[C@H]3CCC[C@H]4CC[C@@H](C(=O)N5CC(c6cnccc6OCC)C5)N4C3=O)cc2c1` (stereo partly drawn) [Compound 484, propyl (((S)-(2-(((3S,6S,9aS)-3-(3-(4-ethoxypyridin-3-yl)azetidine-1-carbonyl)-5-oxooctahydro-1H-pyrrolo[1,2-a]azepin-6-yl)carbamoyl)benzo [b]thiophen-5-yl)fluoromethyl) (phenoxy)phosphoryl)-L-alaninate], for which the IC50 is less than 100 nM.

For `CN=S(C)(=O)CC1(OC)CN(C(=O)C2CCC3CCCC(NC(=O)c4cc5cc(C(F)(F)P(=O)(OCCSC(=O)C(C)(C)C)OCCSC(=O)C(C)(C)C)ccc5s4)C(=O)N32)C1` [Compound 1015, S,S′-(((((2-(((3S,6S,9aS)-3-(3-((N,S-dimethyl-sulfonimidoyl)methyl)-3-methoxyazetidine-1-carbonyl)-5-oxooctahydro-1H-pyrrolo[1,2-a]azepin-6-yl)carbamoyl)benzo [b]thiophen-5-yl)difluoromethyl)phosphoryl)bis(oxy))bis(ethane-2,1-diyl)) bis(2,2-dimethyl-propanethioate)], the IC50 was less than 100 nM.

As for `CCCOC(=O)[C@H](C)N[P@](=O)(Oc1ccccc1)[C@H](F)c1ccc2sc(C(=O)N[C@H]3CCC[C@H]4CC[C@@H](C(=O)N5CC(c6cnccc6N6CCOCC6)C5)N4C3=O)cc2c1` (single isomer, unassigned) [Compound 1044], the IC50 is less than 100 nM.

For the compound `CCCOC(=O)[C@H](C)N[P@@](=O)(Oc1ccccc1)[C@@H](F)c1ccc2sc(C(=O)N[C@H]3CCC[C@H]4CC[C@@H](C(=O)N5CC(c6cnccc6OC)C5)N4C3=O)cc2c1` (single isomer, unassigned) [Compound 1032], the IC50 was less than 100 nM.

For the compound `CCCOC(=O)[C@H](C)NP(=O)(Oc1ccccc1)[C@@H](F)c1ccc2sc(C(=O)N[C@H]3CCC[C@H]4CC[C@@H](C(=O)N5CC(c6cncnc6N(C)C)C5)N4C3=O)cc2c1` (some centres unmarked) [Compound 1069], the IC50 is less than 100 nM.

Turning to `CCCOC(=O)[C@H](C)NP(=O)(Oc1ccccc1)[C@H](F)c1ccc2sc(C(=O)N[C@H]3CCC[C@H]4CC[C@@H](C(=O)N5CC(c6cnccc6N6CC(C#N)C6)C5)N4C3=O)cc2c1` (stereo partly drawn) [Compound 1061, propyl (((S)-(2-(((3S,6S,9aS)-3-(3-(4-(3-cyanoazetidin-1-yl)pyridin-3-yl)azetidine-1-carbonyl)-5-oxooctahydro-1H-pyrrolo[1,2-a]azepin-6-yl)carbamoyl)benzo [b]thiophen-5-yl)fluoromethyl) (phenoxy)phosphoryl)-L-alaninate], the IC50 was 100 to 1000 nM.

Turning to `CCCOC(=O)[C@H](C)NP(=O)(Cc1ccc2sc(C(=O)N[C@H]3CCC[C@H]4CC[C@@H](C(=O)N5CC(c6cnccc6C)C5)N4C3=O)cc2c1)Oc1ccccc1` (stereo partly drawn) [Compound 951, propyl (((2-(((3S,6S,9aS)-3-(3-(4-methylpyridin-3-yl)azetidine-1-carbonyl)-5-oxooctahydro-1H-pyrrolo[1,2-a]azepin-6-yl)carbamoyl)benzo [b]thiophen-5-yl)methyl) (phenoxy)phosphoryl)-L-alaninate], the IC50 is less than 100 nM.

Consider `CCCOC(=O)[C@H](C)NP(=O)(Oc1ccccc1)[C@@H](F)c1ccc2sc(C(=O)N[C@H]3CCC[C@H]4CC[C@@H](C(=O)N5CC(c6cncnc6N6CCC6)C5)N4C3=O)cc2c1` (some centres unmarked) [Compound 1075], for which the IC50 is less than 100 nM.
